Measured values reported in US6589965B2, “Method of treating and preventing migraine headaches” (Pharmacia & Upjohn Company, priority 2001, dated 2003).

What was measured:
migraine headache = conditions: cited from earlier work; for efficacy in acute treatment of migraine (in words): literature reports
[1] = test system: quinpirole-induced yawning in rats; assay: antagonism of quinpirole-induced yawning in rats; assay type: in vivo, Male Sprague Dawley Rats
Experimental: Yawning is a behavior that has been linked to activation of dopaminergic neurotransmission.
Male Sprague Dawley Rats were used in this example. The animals were allowed 12 day acclimatization before testing and at the time of the study, their body weights ranged from 280-330 grams. The rats were housed in standard size steel cages with four animals per cage and were maintained on a 12 hour light/dark schedule with the lights being on from 6:00 a.m. to 6:00 p.m. All tests were performed between 8:00 a.m. and 2:00 p.m. Six animals were used per group.
The animals were then placed individually in a 6″×6″plexiglass observation cages and the number of yawns were counted for the subsequent 30 minutes. The results are shown in FIG. 1 with the data being expressed as the mean total number of yawns per 30 minutes. An analysis of variance was used for statistical calculations and probability levels of <0.05 was regarded as being statistically significant.

D2 dopamine receptor = D2 dopamine receptor (Homo sapiens, UniProt P14416); conditions: cited from earlier work
migraine = conditions: literature reports; cited from earlier work
[2] = within 60 minutes of administration, randomized, double-blind clinical trial (Jones et al 1989)

Chain of D2 dopamine receptor (P14416 whole entry): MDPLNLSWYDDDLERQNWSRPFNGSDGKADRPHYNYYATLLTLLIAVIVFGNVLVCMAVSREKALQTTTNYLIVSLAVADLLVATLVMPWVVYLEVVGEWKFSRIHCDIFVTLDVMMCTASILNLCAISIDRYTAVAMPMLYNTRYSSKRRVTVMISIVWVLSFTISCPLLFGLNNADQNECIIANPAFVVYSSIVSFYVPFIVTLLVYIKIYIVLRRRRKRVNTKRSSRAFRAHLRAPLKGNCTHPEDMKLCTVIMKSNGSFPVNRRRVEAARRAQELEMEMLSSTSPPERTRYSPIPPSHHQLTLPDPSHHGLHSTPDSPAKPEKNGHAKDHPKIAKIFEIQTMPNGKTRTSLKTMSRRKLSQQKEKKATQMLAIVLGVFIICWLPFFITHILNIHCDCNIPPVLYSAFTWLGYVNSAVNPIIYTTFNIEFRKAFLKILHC

For `CN(C)CCCN1c2ccccc2Sc2ccc(Cl)cc21` [Chlorpromazine], which “efficacy in acute treatment of migraine (in words)” value (“efficacy in acute treatment” below) (migraine headache) is on record?
The value was “highly effective”.

And the common side effect (migraine headache; migraine patients in an emergency department (Lane et al 1985))?
Its common side effect is “moderate drowsiness”.

For `CN1CCN(CCCN2c3ccccc3Sc3ccc(Cl)cc32)CC1` [Prochlorperazine], which “efficacy in acute treatment” value (migraine headache) is on record?
Its value is “high degree of efficacy”.

What about the “additional patients with partial relief” value (migraine headache; [2]) of the same molecule?
Its value is 14%.

And the “patients with complete relief” value (migraine headache; [2])?
Its value is 74%.

With `CCCN1CCC[C@@H](c2cccc(S(C)(=O)=O)c2)C1` [Cmpd 1, S-(−)-3-[3-(methylsulfonyl)phenyl]-1-propyl-piperidine] as the molecule, how does the “antagonism of the yawning behavior induced by quinpirole” value ([1]; 10 or 30 mg/kg injected 15 minutes before quinpirole 0.1 mg/kg) read?
Its value is “dose-dependent and complete antagonism”.

And the “induction of yawning behavior by compound given alone” value ([1]; given alone at a dose of 30 mg/kg)?
The value was “failed to induce yawning behavior”.

Which “affinity for the D2 dopamine receptor (in words)” value (D2 dopamine receptor) does the source give for `Fc1ccc(C(c2ccc(F)cc2)N2CCN(C/C=C/c3ccccc3)CC2)cc1` [Flunarizine] here?
Its value is “moderate degree of affinity”.

And the “efficacy in acute treatment” value (migraine headache)?
Its value is “high degree of relief”.

For `CCN(CC)CCNC(=O)c1cc(Cl)c(N)cc1OC` [Metoclopramide], which “affinity for the D2 dopamine receptor (in words)” value (D2 dopamine receptor) is on record?
Its value is “relatively low affinity”.

And the “preventive / prophylactic effect on migraine (in words)” value (migraine)?
Its value is “beneficial effect”.

Which “patients with headache completely or substantially relieved” value (migraine headache; Fisher, J Emerg Med 1995) does the source give for `O=C(CCCN1CCC(O)(c2ccc(Cl)cc2)CC1)c1ccc(F)cc1` [haloperidol] here?
Its value is “six of six”.

What about the “time to headache relief after administration” value (migraine headache; Fisher, J Emerg Med 1995) of the same molecule?
The value was 25 to 65 min.

For `O=c1[nH]c2ccccc2n1CCCN1CCC(n2c(=O)[nH]c3cc(Cl)ccc32)CC1` [Domperidone], which “preventive / prophylactic effect on migraine (in words)” value (migraine) is on record?
Its value is “prevent the occurrence of a migraine”.
